Results from ChEMBL document CHEMBL3508140 (2016).
Values belong to the compound of their own block, whether it stands above or below them.

What was measured:
[1] = (§1) Terminal half-life of epirubicin-glucuronide following intravenous epirubicin at 3 mg.Kg-1 dose in rabbit; assay type: ADME, organism-based, Oryctolagus cuniculus, New Zealand White, Plasma; conditions: in vivo
[2] = Recovery of epirubicinol-glucuronide following intraperitoneal epirubicin at 4 mg.Kg-1 dose in hamster; assay type: ADME, organism-based, Cricetulus griseus, Plasma; conditions: chinese hamster, in vivo, ip
[3] = AUC(0-2 h) of epirubicinol-glucuronide following intravenous epirubicin at 1 mg.Kg-1 dose in rabbit; assay type: ADME, organism-based, Oryctolagus cuniculus, New Zealand White, Plasma; conditions: in vivo
[4] = Urinary excretion of epirubicin glucuronide following epirubicin at 60 mg.m-2 dose in cancer patients; assay type: ADME, organism-based, Urine; conditions: human, in vivo; at 60 mg/m2
[5] = Urinary excretion of epirubicinol glucuronide following epirubicin at 75-90 mg.m-2 dose in cancer patients; assay type: ADME, organism-based, Urine; conditions: human, in vivo
[6] = (§2) Terminal half-life of epirubicin-glucuronide following intravenous epirubicin at 1 mg.Kg-1 dose in rabbit; assay type: ADME, organism-based, Oryctolagus cuniculus, New Zealand White, Plasma; conditions: in vivo
[7] = Urinary excretion of epirubicin glucuronide following epirubicin at 75-90 mg.m-2 dose in cancer patients; assay type: ADME, organism-based, Urine; conditions: human, in vivo
[8] = Recovery of epirubicin-glucuronide following intraperitoneal epirubicin at 4 mg.Kg-1 dose in hamster; assay type: ADME, organism-based, Cricetulus griseus, Plasma; conditions: chinese hamster, in vivo, ip
[9] = (§3) Urinary excretion of epirubicin glucuronide following epirubicin at 50 mg.m-2 dose in cancer patients; assay type: ADME, organism-based, Urine; conditions: human, in vivo; at 50 mg/m2
[10] = Biliary excretion of epirubicinol glucuronide following epirubicin at 50 mg.m-2 dose in cancer patients; assay type: ADME, organism-based, Bile; conditions: human, in vivo; at 50 mg/m2
[11] = AUC(0-2 h) of epirubicinol-glucuronide following intravenous epirubicin at 3 mg.Kg-1 dose in rabbit; assay type: ADME, organism-based, Oryctolagus cuniculus, New Zealand White, Plasma; conditions: in vivo
[12] = Recovery of epirubicinol-glucuronide following intravenous epirubicin at 4 mg.Kg-1 dose in rat; assay type: ADME, organism-based, SD, Plasma; conditions: in vivo
[13] = Recovery of epirubicinol-glucuronide following intraperitoneal epirubicin at 4 mg.Kg-1 dose in mouse; assay type: ADME, organism-based, CD-1, Plasma; conditions: in vivo, ip
[14] = Recovery of epirubicin-glucuronide following intravenous epirubicin at 1.5 mg.Kg-1 dose in man; assay type: ADME, organism-based, Plasma; conditions: human, in vivo
[15] = as §1; assay type: ADME, organism-based, Oryctolagus cuniculus, New Zealand White, Plasma; conditions: in vivo; remark: listed apart in the source
[16] = Terminal half-life of epirubicinol-glucuronide following intravenous epirubicin at 1 mg.Kg-1 dose in rabbit; assay type: ADME, organism-based, Oryctolagus cuniculus, New Zealand White, Plasma; conditions: in vivo
[17] = Biliary excretion of epirubicin glucuronide following epirubicin at 50 mg.m-2 dose in cancer patients; assay type: ADME, organism-based, Bile; conditions: human, in vivo; at 50 mg/m2
[18] = (§4) Urinary excretion of epirubicinol glucuronide following epirubicin at 50 mg.m-2 dose in cancer patients; assay type: ADME, organism-based, Urine; conditions: human, in vivo; at 50 mg/m2
[19] = Urinary excretion of epirubicin glucuronide following epirubicin at 60-150 mg.m-2 dose in cancer patients; assay type: ADME, organism-based, Urine; conditions: human, in vivo
[20] = as §2; assay type: ADME, organism-based, Oryctolagus cuniculus, New Zealand White, Plasma; conditions: in vivo; remark: listed apart in the source
[21] = Recovery of epirubicinol-glucuronide following intravenous epirubicin at 1.5 mg.Kg-1 dose in man; assay type: ADME, organism-based, Plasma; conditions: human, in vivo
[22] = Recovery of epirubicin-glucuronide following intravenous epirubicin at 4 mg.Kg-1 dose in rat; assay type: ADME, organism-based, SD, Plasma; conditions: in vivo
[23] = AUC(0-2 h) of epirubicin-glucuronide following intravenous epirubicin at 1 mg.Kg-1 dose in rabbit; assay type: ADME, organism-based, Oryctolagus cuniculus, New Zealand White, Plasma; conditions: in vivo
[24] = Recovery of epirubicin-glucuronide following intraperitoneal epirubicin at 4 mg.Kg-1 dose in mouse; assay type: ADME, organism-based, CD-1, Plasma; conditions: in vivo, ip
[25] = Recovery of epirubicin-glucuronide following intravenous epirubicin at 4 mg.Kg-1 dose in rabbit; assay type: ADME, organism-based, Oryctolagus cuniculus, New Zealand White, Plasma; conditions: in vivo
[26] = Urinary excretion of epirubicinol glucuronide following epirubicin at 60-150 mg.m-2 dose in cancer patients; assay type: ADME, organism-based, Urine; conditions: human, in vivo
[27] = as §3; assay type: ADME, organism-based, Urine; conditions: human, in vivo; at 50 mg/m2; remark: listed apart in the source
[28] = as §4; assay type: ADME, organism-based, Urine; conditions: human, in vivo; at 50 mg/m2; remark: listed apart in the source
[29] = AUC(0-2 h) of epirubicin-glucuronide following intravenous epirubicin at 3 mg.Kg-1 dose in rabbit; assay type: ADME, organism-based, Oryctolagus cuniculus, New Zealand White, Plasma; conditions: in vivo
[30] = Recovery of epirubicinol-glucuronide following intravenous epirubicin at 4 mg.Kg-1 dose in rabbit; assay type: ADME, organism-based, Oryctolagus cuniculus, New Zealand White, Plasma; conditions: in vivo
[31] = Terminal half-life of epirubicinol-glucuronide following intravenous epirubicin at 3 mg.Kg-1 dose in rabbit; assay type: ADME, organism-based, Oryctolagus cuniculus, New Zealand White, Plasma; conditions: in vivo
[32] = Urinary excretion of epirubicinol glucuronide following epirubicin at 60 mg.m-2 dose in cancer patients; assay type: ADME, organism-based, Urine; conditions: human, in vivo; at 60 mg/m2
[33] = AUC values (0-48 h) of epirubicinol in heart following single intravenous epirubicin at 10 mg.Kg-1 dose in female mouse bearing colon tumor; assay type: ADME, organism-based, BALB/c; conditions: in vivo
[34] = (§5) Urinary elimination of 4'-epiadriamycinol following intravenous bolus 4'-epiadriamycin at 10 mg.Kg-1 dose in rat; assay type: ADME, organism-based, SD, Urine; conditions: in vivo
[35] = Biliary excretion of epirubicinol following epirubicin at 50 mg.m-2 dose in cancer patients; assay type: ADME, organism-based, Bile; conditions: human, in vivo; at 50 mg/m2
[36] = AUC(0-24 h) of epirubicinol following intravenous epirubicin at 3 mg.Kg-1 dose in rabbit; assay type: ADME, organism-based, Oryctolagus cuniculus, New Zealand White, Plasma; conditions: in vivo
[37] = Recovery of epirubicinol following intraperitoneal epirubicin at 4 mg.Kg-1 dose in mouse; assay type: ADME, organism-based, CD-1, Plasma; conditions: in vivo, ip
[38] = Urinary excretion of epirubicinol following epirubicin at 75-90 mg.m-2 dose in cancer patients; assay type: ADME, organism-based, Urine; conditions: human, in vivo
[39] = Recovery of epirubicinol following intravenous epirubicin at 4 mg.Kg-1 dose in rat; assay type: ADME, organism-based, SD, Plasma; conditions: in vivo
[40] = Recovery of epirubicinol following intravenous epirubicin at 4 mg.Kg-1 dose in rabbit; assay type: ADME, organism-based, Oryctolagus cuniculus, New Zealand White, Plasma; conditions: in vivo
[41] = as §5; assay type: ADME, organism-based, SD, Urine; conditions: in vivo; remark: listed apart in the source
[42] = Urinary excretion of epirubicinol following epirubicin at 60 mg.m-2 dose in cancer patients; assay type: ADME, organism-based, Urine; conditions: human, in vivo; at 60 mg/m2
[43] = Detection of epirubicinol in plasma following single intravenous epirubicin at 10 mg.Kg-1 dose in female mouse bearing colon tumor; assay type: ADME, organism-based, BALB/c; conditions: in vivo
[44] = AUC(0-24 h) of epirubicinol following intravenous epirubicin at 1 mg.Kg-1 dose in rabbit; assay type: ADME, organism-based, Oryctolagus cuniculus, New Zealand White, Plasma; conditions: in vivo
[45] = Recovery of epirubicinol following intraperitoneal epirubicin at 4 mg.Kg-1 dose in hamster; assay type: ADME, organism-based, Cricetulus griseus, Plasma; conditions: chinese hamster, in vivo, ip
[46] = (§6) Urinary excretion of epirubicinol following epirubicin at 50 mg.m-2 dose in cancer patients; assay type: ADME, organism-based, Urine; conditions: human, in vivo; at 50 mg/m2
[47] = Detection of epirubicinol in tumor following single intravenous epirubicin at 10 mg.Kg-1 dose in female mouse bearing colon tumor; assay type: ADME, organism-based, BALB/c, Neoplasm; conditions: in vivo
[48] = Detection of epirubicinol in heart following single intravenous epirubicin at 10 mg.Kg-1 dose in female mouse bearing colon tumor; assay type: ADME, organism-based, BALB/c; conditions: in vivo
[49] = Recovery of epirubicinol following intravenous epirubicin at 1.5 mg.Kg-1 dose in man; assay type: ADME, organism-based, Plasma; conditions: human, in vivo
[50] = as §5; assay type: ADME, organism-based, SD, Urine; conditions: in vivo; remark: listed apart in the source
[51] = AUC values (0-48 h) of epirubicinol in plasma following single intravenous epirubicin at 10 mg.Kg-1 dose in female mouse bearing colon tumor; assay type: ADME, organism-based, BALB/c; conditions: in vivo
[52] = AUC values (0-48 h) of epirubicinol in tumor following single intravenous epirubicin at 10 mg.Kg-1 dose in female mouse bearing colon tumor; assay type: ADME, organism-based, BALB/c, Neoplasm; conditions: in vivo
[53] = Urinary excretion of epirubicinol following epirubicin at 60-150 mg.m-2 dose in cancer patients; assay type: ADME, organism-based, Urine; conditions: human, in vivo
[54] = as §6; assay type: ADME, organism-based, Urine; conditions: human, in vivo; at 50 mg/m2; remark: listed apart in the source

- t1/2 [1]: OUTCOME = Not calculated
- Compound recovery [2]: 0 10^-9M
- AUC [3]: 1.47 ng·h/mL
- Compound recovery [4]: 3.2%
- Compound recovery [5]: 0.8%
- t1/2 [6]: 9 min
- Compound recovery [7]: 3.2%
- Compound recovery [8]: 0 10^-9M
- Compound recovery [9]: 3.3%
- Compound recovery [10]: 1.9%
- AUC [11]: 4.01 ng·h/mL
- Compound recovery [12]: 0 10^-9M
- Compound recovery [13]: 0 10^-9M
- Compound recovery [14]: 460 10^-9M
- t1/2 [15]: 29.4 min
- t1/2 [16]: 12.6 min
- Compound recovery [17]: 4.6%
- Compound recovery [18]: 1.7%
- Compound recovery [19]: 1.3%
- t1/2 [20]: 61.2 min
- Compound recovery [21]: 90 10^-9M
- Compound recovery [22]: 0 10^-9M
- AUC [23]: 7.64 ng·h/mL
- Compound recovery [24]: 0 10^-9M
- Compound recovery [25]: 1.7 10^-9M
- Compound recovery [26]: 0.3%
- Compound recovery [27]: 4.6%
- Compound recovery [28]: 0.4%
- AUC [29]: 15.83 ng·h/mL
- Compound recovery [30]: 0.5 10^-9M
- t1/2 [31]: 23.4 min
- Compound recovery [32]: 0.8%
Structure (SMILES): COc1cccc2c1C(=O)c1c(O)c3c(c(O)c1C2=O)C[C@@](O)(C(=O)CO)C[C@@H]3O[C@H]1C[C@H](N)[C@@H](O[C@@H]2O[C@H](C(=O)O)[C@@H](O)[C@H](O)[C@H]2O)[C@H](C)O1

- AUC [33]: 46 nmol·min/g
- Compound recovery [34]: 0.024%
- Compound recovery [35]: 6.5%
- AUC [36]: 204.86 ng·h/mL
- Compound recovery [37]: 0.2 10^-9M
- Compound recovery [38]: 0.8%
- Compound recovery [39]: 0.4 10^-9M
- Compound recovery [40]: 23 10^-9M
- Compound recovery [41]: 0.03%
- Compound recovery [42]: 0.9%
- Compound recovery [43]: OUTCOME = Observed
- AUC [44]: 69.46 ng·h/mL
- Compound recovery [45]: 3.3 10^-9M
- Compound recovery [46]: 0.6%
- Compound recovery [47]: OUTCOME = Not detected/not observed
- Compound recovery [48]: OUTCOME = Observed
- Compound recovery [49]: 15 10^-9M
- Compound recovery [50]: 0.044%
- AUC [51]: 0.5 nmol·min/mL
- AUC [52]: 0 nmol·min/g
- Compound recovery [53]: 0.5%
- Compound recovery [54]: 4.1%
Structure (SMILES): COc1cccc2c1C(=O)c1c(O)c3c(c(O)c1C2=O)C[C@@](O)(C(O)CO)C[C@@H]3O[C@H]1C[C@H](N)[C@@H](O)[C@H](C)O1 (some centres undefined)
